Source: US9790217B2, “Pyridinyloxy- and phenyloxy-pyrazolyl compounds” (Hoffmann-La Roche Inc., priority 2014, dated 2017)

Assays:
human CYP11B1 = human CYP11B1 (Homo sapiens (Human), UniProt P15538); assay: G-402 cellular enzyme assay, human CYP11B1 (cortisol release, HTRF); assay type: cell-based; conditions: G-402 cells expressing human CYP11B1; 1 μM Deoxycortisol
Text: (§1) Herein we identified the use of the G-402 cell line as a host cell to ectopically express (transiently or stably) enzymes of the CYP11 family. Specifically we developed stable G-402 cells expressing ectopically human CYP11B1, human CYP11B2, human CYP11A1, cynmolgus CYP11B1 or cynomolgus CYP11B2 enzyme activity. Importantly the identified cell line G-402 expresses co-factors (adrenodoxin and adrenodoxin reductase) important for the activity of the CYP11 family and no relevant enzyme activity of the CYP11 family (in comparison to H295R cells) was detected in these cells. Therefore the G-402 cell line is uniquely suited as a host cell for the ectopic expression of enzymes from the CYP11 family.
(§2) G-402 cells can be obtained from ATCC (CRL-1440) and were originally derived from a renal leiomyoblastoma.
(§3) The expression plasmids contains the ORF for either human/cyno CYP11B1 or CYP11B2 under the control of a suitable promoter (CMV-promoter) and a suitable resistance marker (neomycin). Using standard techniques the expression plasmid is transfected into G-402 cells and these cells are then selected for expressing the given resistance markers. Individual cell-clones are then selected and assessed for displaying the desired enzymatic activity using 11-Deoxycorticosterone (Cyp11B2) or 11-Deoxycortisol (Cyp11B1) as a substrate.
(§4) G-402 cells expressing CYP11 constructs were established as described above and maintained in McCoy's 5a Medium Modified, ATCC Catalog No. 30-2007 containing 10% FCS and 400 μg/ml G418 (Geneticin) at 37° C. under an atmosphere of 5% CO2/95% air. Cellular enzyme assays were performed in DMEM/F12 medium containing 2.5% charcoal treated FCS and appropriate concentration of substrate (0.3-10 uM 11-Deoxycorticosterone, 11-Deoxycortisol or Corticosterone). For assaying enzymatic activity, cells were plated onto 96 well plates and incubated for 16 h. An aliquot of the supernatant is then transferred and analyzed for the concentration of the expected product (Aldosterone for CYP11B2; Cortisol for CYP11B1). The concentrations of these steroids can be determined using HTRF assays from CisBio analyzing either Aldosterone or Cortisol.
(§5) Inhibition of the release of produced steroids can be used as a measure of the respective enzyme inhibition by test compounds added during the cellular enzyme assay. The dose dependent inhibition of enzymatic activity by a compound is calculated by means of plotting added inhibitor concentrations (x-axes) vs. measured steroid/product level (y-axes). The inhibition is then calculated by fitting the following 4-parameter sigmoidal function (Morgan-Mercer-Flodin (MMF) model) to the raw data points using the least squares method:
(§6) [formula] wherein, A is the maximum y value, B is the EC50 factor determined using XLFit, C is the minimum y value and D is the slope value.
(§7) EC50 values for compounds claimed herein were tested with the G402-based assay system described. Cyp11B2 enzyme activity was tested in presence of 1 μM Deoxycorticosterone and variable amounts of inhibitors; Cyp11B1 enzyme activity was tested in presence of 1 μM Deoxycortisol and variable amounts of inhibitors.

human CYP11B2 = human CYP11B2 (Homo sapiens (Human), UniProt P19099); assay: G-402 cellular enzyme assay, human CYP11B2 (aldosterone release, HTRF); assay type: cell-based; conditions: G-402 cells expressing human CYP11B2; 1 μM Deoxycorticosterone
Sequence of human CYP11B2 (P19099 25-503): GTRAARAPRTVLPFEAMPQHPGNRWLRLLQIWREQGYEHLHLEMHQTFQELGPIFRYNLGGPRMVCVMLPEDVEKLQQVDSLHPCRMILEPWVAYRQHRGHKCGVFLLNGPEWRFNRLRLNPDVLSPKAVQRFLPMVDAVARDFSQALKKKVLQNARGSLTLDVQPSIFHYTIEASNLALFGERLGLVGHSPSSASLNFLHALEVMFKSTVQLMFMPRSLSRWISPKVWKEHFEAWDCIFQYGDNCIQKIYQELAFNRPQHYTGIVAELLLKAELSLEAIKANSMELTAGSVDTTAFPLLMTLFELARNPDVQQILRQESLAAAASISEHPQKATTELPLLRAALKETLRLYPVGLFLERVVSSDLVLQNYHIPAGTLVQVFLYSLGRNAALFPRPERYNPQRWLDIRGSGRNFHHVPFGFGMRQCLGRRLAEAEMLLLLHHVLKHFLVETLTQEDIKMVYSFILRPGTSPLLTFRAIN
Text: as §1, §2, §3, §4, §5, §6, §7

[1] = tested on: rat model of chronic kidney disease; conditions: rat CKD model, cited from earlier work; for plasma aldosterone: FAD286 4 weeks, spironolactone 4 and 8 weeks of treatment
[2] = tested on: rats with experimental heart failure; conditions: cited from earlier work
[3] = tested on: patients with primary aldosteronism; conditions: cited from earlier work

Sequence of human CYP11B1 (P15538 25-503): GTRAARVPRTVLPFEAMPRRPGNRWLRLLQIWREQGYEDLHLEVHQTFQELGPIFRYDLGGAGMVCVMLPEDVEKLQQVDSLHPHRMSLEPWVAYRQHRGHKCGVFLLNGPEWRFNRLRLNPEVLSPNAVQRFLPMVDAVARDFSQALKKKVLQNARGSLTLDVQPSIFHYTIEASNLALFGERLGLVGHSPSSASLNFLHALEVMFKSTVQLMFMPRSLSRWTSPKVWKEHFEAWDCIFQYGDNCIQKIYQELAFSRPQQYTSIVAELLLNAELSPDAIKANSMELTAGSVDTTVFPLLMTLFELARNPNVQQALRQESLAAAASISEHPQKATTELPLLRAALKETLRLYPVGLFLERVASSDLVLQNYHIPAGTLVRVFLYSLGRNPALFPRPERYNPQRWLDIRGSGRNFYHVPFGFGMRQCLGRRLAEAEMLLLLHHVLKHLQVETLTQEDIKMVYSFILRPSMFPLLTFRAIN

Row | Compound | EC50 (human CYP11B1) [µM] | EC50 (human CYP11B2) [µM] | also measured
1 | Cn1cc(-c2[nH]ncc2Oc2ccc(C#N)cc2)cn1 [Example 67, 4-[[3-(1-Methylpyrazol-4-yl)-1H-pyrazol-4-yl]oxy]benzonitrile] | 3.27 | 0.251 | 
2 | N#Cc1ccc(Oc2cn[nH]c2-c2cnn(Cc3ccccc3)c2)cc1 [Example 68, 4-[[5-(1-Benzylpyrazol-4-yl)-1H-pyrazol-4-yl]oxy]benzonitrile] | 2.4 | 0.439 | 
3 | N#Cc1ccc(Oc2cn[nH]c2-c2cccc(COc3cccc(F)n3)c2)cc1 [Example 69, 4-[[3-[3-[(6-Fluoropyridin-2-yl)oxymethyl]phenyl]-1H-pyrazol-4-yl]oxy]benzonitrile] | 0.0477 | 0.0169 | 
4 | N#Cc1ccc(Oc2cn[nH]c2-c2cccc(COc3cccnc3)c2)cc1 [Example 70, 4-[[3-[3-(Pyridin-3-yloxymethyl)phenyl]-1H-pyrazol-4-yl]oxy]benzonitrile] | 0.0383 | 0.0106 | 
5 | N#Cc1ccc(Oc2cn[nH]c2-c2cccc(C[n+]3cccc([O-])c3)c2)cc1 [Example 71, 1-[[3-[4-(4-Cyanophenoxy)-1H-pyrazol-3-yl]phenyl]methyl]pyridin-1-ium-3-olate] | 5.88 | 0.656 | 
6 | N#Cc1ccc(Oc2cn[nH]c2-c2cccc(Cn3ccc(=O)cc3)c2)cc1 [Example 72, 4-[[3-[3-[(4-Oxopyridin-1-yl)methyl]phenyl]-1H-pyrazol-4-yl]oxy]benzonitrile] | 19.3 | 1.63 | 
7 | N#Cc1ccc(Oc2cn[nH]c2-c2cccc(COc3cccc(Cl)n3)c2)cc1 [Example 73, 4-[[3-[3-[(6-Chloropyridin-2-yl)oxymethyl]phenyl]-1H-pyrazol-4-yl]oxy]benzonitrile] | 0.411 | 0.104 | 
8 | N#Cc1ccc(Oc2cn[nH]c2-c2cccc(CN3CC(F)(CO)C3)c2)cc1 [Example 74, 4-[[3-[3-[[3-Fluoro-3-(hydroxymethyl)azetidin-1-yl]methyl]phenyl]-1H-pyrazol-4-yl]oxy]benzonitrile] | 0.0362 | 0.0197 | 
9 | N#Cc1ccc(Oc2cn[nH]c2-c2cccc(CN3CCOCC3)c2)cc1 [Example 75, 4-[[3-[3-(Morpholin-4-ylmethyl)phenyl]-1H-pyrazol-4-yl]oxy]benzonitrile] | 0.139 | 0.0085 | 
10 | N#Cc1ccc(Oc2cn[nH]c2-c2ccccc2OCc2ccncc2)cc1 [Example 76, 4-[[3-[2-(Pyridin-4-ylmethoxy)phenyl]-1H-pyrazol-4-yl]oxy]benzonitrile] | 0.0068 | 0.0002 | 
11 | N#Cc1ccc(Oc2cn[nH]c2-c2ccccc2OCc2cccnc2)cc1 [Example 77, 4-[[3-[2-(Pyridin-3-ylmethoxy)phenyl]-1H-pyrazol-4-yl]oxy]benzonitrile] | 0.0114 | 0.0003 | 
12 | N#Cc1ccc(Oc2cn[nH]c2-c2ccccc2O)cc1 [Example 78, 4-[[3-(2-Hydroxyphenyl)-1H-pyrazol-4-yl]oxy]benzonitrile] | 0.0107 | 0.0003 | 
13 | N#Cc1ccc(Oc2cn[nH]c2-c2ccccc2OCc2ccccn2)cc1 [Example 79, 4-[[3-[2-(Pyridin-2-ylmethoxy)phenyl]-1H-pyrazol-4-yl]oxy]benzonitrile] | 0.0025 | 0.0002 | 
14 | Cn1cc(COc2ccccc2-c2[nH]ncc2Oc2ccc(C#N)cc2)cn1 [Example 80, 4-[[3-[2-[(1-Methylpyrazol-4-yl)methoxy]phenyl]-1H-pyrazol-4-yl]oxy]benzonitrile] | 0.0069 | 0.0003 | 
15 | Cn1nncc1COc1ccccc1-c1[nH]ncc1Oc1ccc(C#N)cc1 [Example 81, 4-[[3-[2-[(3-Methyltriazol-4-yl)methoxy]phenyl]-1H-pyrazol-4-yl]oxy]benzonitrile] | 0.171 | 0.0025 | 
16 | N#Cc1ccc(Oc2cn[nH]c2-c2ccccc2Cn2ccc(=O)cc2)cc1 [Example 83, 4-[[3-[2-[(4-Oxopyridin-1-yl)methyl]phenyl]-1H-pyrazol-4-yl]oxy]benzonitrile] | 2.88 | 0.321 | 
17 | N#Cc1ccc(Oc2cn[nH]c2-c2cccc(O)c2F)cc1 [Example 84, 4-[[3-(2-Fluoro-3-hydroxyphenyl)-1H-pyrazol-4-yl]oxy]benzonitrile] | 0.0173 | 0.0004 | 
18 | N#Cc1ccc(Oc2cn[nH]c2-c2cccc(OCc3ccncc3)c2F)cc1 [Example 85, 4-[[3-[2-Fluoro-3-(pyridin-4-ylmethoxy)phenyl]-1H-pyrazol-4-yl]oxy]benzonitrile] | 0.0052 | 0.0003 | 
19 | N#Cc1ccc(Oc2cn[nH]c2-c2cccc(OCc3ccnc(Cl)c3)c2F)cc1 [Example 86, 4-[[3-[3-[(2-Chloropyridin-4-yl)methoxy]-2-fluorophenyl]-1H-pyrazol-4-yl]oxy]benzonitrile] | 0.028 | 0.0043 | 
20 | Cn1cc(C(=O)N2CCN(Cc3[nH]ncc3Oc3ccc(C#N)cc3)CC2)cn1 [Example 88, 4-[[5-[[4-(1-Methylpyrazole-4-carbonyl)piperazin-1-yl]methyl]-1H-pyrazol-4-yl]oxy]benzonitrile] | 25.9 | 0.147 | 
21 | Cn1nncc1COc1c(Cl)cccc1-c1[nH]ncc1Oc1ccc(C#N)cc1 [Example 90, 4-[[3-[3-Chloro-2-[(3-methyltriazol-4-yl)methoxy]phenyl]-1H-pyrazol-4-yl]oxy]benzonitrile] | 1.58 | 0.159 | 
22 | N#Cc1ccc(C2CCCc3cncn32)cc1 (stereo not drawn) [FAD286] |  |  | plasma aldosterone [1]: reduced; cardiac and aortic medial hypertrophy [1]: attenuated; renal effects of angiotensin II and high salt (albuminuria, azotemia, renovascular hypertrophy, glomerular injury, PAI-1, osteopontin mRNA, tubulointerstitial fibrosis) [1]: prevented; blood pressure and cardiovascular function and structure [2]: improved; kidney function and morphology [2]: improve
23 | N#Cc1ccc([C@H]2CCc3cncn32)c(F)c1 [LCI699] |  |  | blood pressure [3]: mildly decreased; hypokalemia [3]: corrected; circulating aldosterone levels ([3]; oral): significantly lower
24 | CC(=O)S[C@@H]1CC2=CC(=O)CC[C@]2(C)[C@H]2CC[C@@]3(C)[C@@H](CC[C@@]34CCC(=O)O4)[C@H]12 [spironolactone] |  |  | plasma aldosterone [1]: increased; angiotensin II and salt-stimulated PAI-1 mRNA expression in the aorta and the heart [1]: enhanced; cardiac and aortic medial hypertrophy [1]: attenuated; renal effects of angiotensin II and high salt (albuminuria, azotemia, renovascular hypertrophy, glomerular injury, PAI-1, osteopontin mRNA, tubulointerstitial fibrosis) [1]: prevented
